Reference: paper PMC7769561, “Antileishmanial activity of synthetic analogs of the naturally occurring quinolone alkaloid N-methyl-8-methoxyflindersin” (PLoS ONE, 2020)
≈ marks a conversion by molar mass, not a printed value. Where “and” joins values, the source holds several entries; their conditions need not be identical. Identical values can stand only once. Entries after “also recorded” stand apart in the source; their conditions may differ. Like-named read-outs stand apart in the source and are kept apart here.

Tests used:
[1] = system: L. (V.) panamensis intracellular amastigotes; assay: Antileishmanial activity in L. (V.) panamensis intracellular amastigotes in hMDMs; type: cell-based, Leishmania (Viannia) panamensis; conditions: for SI (selectivity index = CC50/EC50): CC50 hMDMs / EC50 intracellular amastigotes; for EC50 Intracellular amastigotes: amastigotes in hMDMs, 72 h, ± SD
Protocol: Next, 100 μL of the suspension was cultured in 96-well plates and infected with L. (V.) panamensis promastigotes (HMOM/COL/87/UA-140) at a 10:1 parasite:cell ratio. We incubated the plates in a 5% CO2 atmosphere for 4 h at 35°C. After incubation, we removed noninternalized parasites by washing the cells with 0.9% NaCl saline solution (Baxter International, Deerfield, IL, USA). The cells were incubated again for 24 h and then treated with each quinoline alkaloid–like compound at a concentration of 100, 10, 1, 0.1, and 0.01 μg/mL in a 5% CO2 atmosphere for 72 h at 36°C. Next, we quantified the percentage of infected cells using fluorescence microscopy, as previously described by Pérez-Cordero in 2011 [23], and quantified the parasite load (amount of intracellular promastigotes and amastigotes per cell) using Giemsa staining and flow cytometry (Cytomics FC 500 MPL; Beckman Coulter, Brea, CA, USA). […] Results were expressed as EC50 using Prism GraphPad software’s probit nonlinear regression analysis (https://www.graphpad.com/scientific-software/prism/).
(§1) We used GraphPad Prism nonlinear regression analysis to estimate the percentage mortality with regard to CC50 and EC50. […] The antileishmanial activity with regard to promastigotes was classified as active according to Eq 2: Active=EC50<[LC50/2], (2) where LC50 is the median lethal concentration. We also used GraphPad Prism nonlinear regression analysis to determine the intracellular antileishmanial activity (concentration vs. response), depending on the infection (number of infected cells) and parasite burden (number of parasites/cell) obtained in experimental conditions. Parasite inhibition was estimated using Eq 3, where the plate MFI is 100% parasites: Infectioninhibition(%)=100−[(MIFexposedparasites/MIFunexposedparasites×100)] (3)
The percentage inhibition was used to calculate EC50 by nonlinear regression analysis (fluorescence microscopy), while the parasite burden was evaluated as the percentage of intracellular promastigotes and amastigotes in 100 infected cells (Giemsa staining). […] The selectivity index (SI) was estimated using the following formula: SI=CC50/EC50

hMDMs = assay: Cytotoxicity in hMDMs (resazurin, 72 h); conditions: class by CC50
Protocol: (§2) We isolated hMDMs from buffy coats donated by the Institute of Local Science (Biotechnology and Health Innovation, Bogotá, Colombia) and spun them in Lymphoprep density gradient medium (Stem-Cell, Vancouver, Canada).
(§3) Next, we added 100 μL of this culture to each quinoline alkaloid–like compound at a concentration of 200, 20, 2, 0.2, and 0.02 μg/mL. […] Cells treated with amphotericin B (Sigma-Aldrich) were used as cell apoptosis (positive) controls. Results were expressed as the medial cytotoxic concentration (CC50) using Prism GraphPad software for nonlinear regression analysis (https://www.graphpad.com/scientific-software/prism/).
(§4) All assays required at least three independently duplicated experiments. We determined cytotoxicity against hMDMs and effectivity in L. (V) panamensis promastigotes according to each treatment’s mortality (compound and concentration) using Eq 1, where the control mean fluorescence intensity (MFI) was 100% viability: Validityinhibition(%)=100−[MIFexposedcells/MIFunexposedcells×100] (1)
as §1

[2] = system: L. (V.) panamensis promastigotes; assay: Antileishmanial activity in L. (V.) panamensis promastigotes (resazurin, 72 h); type: cell-based, Leishmania (Viannia) panamensis
Protocol: They were treated with quinoline alkaloid–like compounds at a concentration of 100, 10, 1, 0.1, and 0.01 μg/mL for 72 h at 26°C. Next, we determined antileishmanial activity using the resazurin method (Sigma-Aldrich). Promastigotes treated with amphotericin B (Sigma-Aldrich) and pentamidine (Sanofi-Aventis, Gentilly, France) were used as parasite death (positive) controls. Results were expressed as the medial effective concentration (EC50) using Prism GraphPad software for nonlinear regression analysis (https://www.graphpad.com/scientific-software/prism/).
as §4, §1

[3] = Treatment toxicity in hamsters (live weight, ALT, creatinine, BUN); type: in vivo, golden hamster (Mesocrisetus auratus)
From the text: (§5) The hamsters were monitored every 4 weeks to assess their appearance and weight and the lesion size. We categorized each compound’s effectiveness pre- and posttreatment as follows: (i) cure (complete disappearance of lesions), (ii) improvement (>10% reduced lesion area), and (iii) therapeutic failure or nonresponse (increased lesion size). The health status was monitored weekly for 3 months (12 weeks) posttreatment. After 3 months, the hamsters were euthanized in a CO2 chamber. We performed histopathological analysis after necropsy of the affected tissues and organs. In addition, we evaluated treatment cytotoxicity using LW monitoring and biochemical parameters (alanine aminotransferase [ALT], creatinine, and blood urea nitrogen [BUN]) pretreatment and 45 days after ointment administration.

[4] = system: L. (V.) panamensis intracellular amastigotes; assay: Transmission electron microscopy of L. (V.) panamensis intracellular amastigotes in hMDMs; type: cell-based, Leishmania (Viannia) panamensis; set-up: Nucleus (ultrastructural alteration grade) / Vacuoles (ultrastructural alteration grade): key: -: no alteration/absence; +: low alteration/low presence; ++: alteration/moderate presence; +++: serious disturbance/abundant presence; conditions: compound at EC50, 72 h, TEM; for Cell membrane (ultrastructural alteration grade): key: -: no alteration/absence; +: low alteration/low presence; ++: alteration/moderate presence; +++: serious disturbance/abundant presence; for Flagellum (flagellar/axonema pocket) (grade): key: -: no alteration/absence; +: low alteration/low presence; ++: alteration/moderate presence; +++: serious disturbance/abundant presence; for LB (lipid bodies, grade): key: -: no alteration/absence; +: low alteration/low presence; ++: alteration/moderate presence; +++: serious disturbance/abundant presence; for Mitochondria/Kinetoplasts (ultrastructural alteration grade): key: -: no alteration/absence; +: low alteration/low presence; ++: alteration/moderate presence; +++: serious disturbance/abundant presence
From the text: (§6) This procedure involved including fresh resin and 100–200-nm-wide ultrafine cuts observed by TEM (100X–10.000X) (HITACHI-HU-12; Hitachi, Tokyo, Japan).

[5] = system: L. (V.) panamensis-infected hMDMs; assay: Transmission electron microscopy of L. (V.) panamensis-infected hMDMs; type: cell-based, human; conditions: compound at EC50, 72 h, TEM
From the text: as §6

[6] = system: L. (V.) panamensis-infected hMDMs; assay: ROS generation in L. (V.) panamensis-infected hMDMs (H2DCFDA flow cytometry); type: cell-based, human; conditions: compound at EC50, 4, 24, 48 and 72 h
Protocol: (§7) Next, we detached the cells with ethylenediaminetetraacetic acid (EDTA)/trypsin (Lonza, MD, USA) and 2',7'-dichlorodihydrofluorescein diacetate (H2DCFDA) tagged on a 5 μM fluorescent tube (Sigma-Aldrich) in order to identify intracellular ROS and/or 4-amino-5-methylamino-2′,7′-difluorofluorescein (DAF-FM; Sigma-Aldrich) for NO production in a 5% CO2 atmosphere for 45 min at 37°C. ROS and NO were quantified using flow cytometry (FACS Canto II) at a wavelength of 480 nm. Untreated cells were used as negative controls, while cells treated with 0.0001% H2O2 and 1 μM phorbol myristate acetate were used as ROS production (positive) controls. LPS (10 ng/mL) and phytohemagglutinin (PHA-M) (10 μL/mL) (Invitrogen) were used as positive controls for NO production.

[7] = Cytotoxicity in hMDMs (resazurin, 72 h); conditions: human
Protocol: as §2, §3, §4, §1

[8] = system: L. (V.) panamensis (MHOM/COL/87/UA140-EGFP); assay: Therapeutic in vivo response in hamsters with experimental cutaneous leishmaniasis; set-up: species or system golden hamster (Mesocrisetus auratus)
From the text: We used a golden hamster (Mesocrisetus auratus) model to evaluate the therapeutic response of synthetic alkaloid compounds 2 and 8. Male and female 6-week-old hamsters with a mean live weight (LW) of 120 g were infected by a dorsal intradermic injection of L. (V.) panamensis (MHOM/COL/87/UA140-EGFP) promastigotes. After the infected hamsters developed ulcers, they were randomly divided into three groups (n = 6 each) and treated topically with 1% ointment formulated from compounds 2 and 8.
as §5
The in vivo efficacy of compounds 1, 2, and 8 was expressed as a percentage cure, improvement, or nonresponse compared to the beginning of treatment. Efficacy was evaluated in vivo to compare percentages, the frequency of change, and treatment cytotoxicity in the hamster model. We used GraphPad Prism to determine ROS and NO production and the apoptotic cell percentage. One- or two-way analysis of variance (ANOVA; response–time kinetics) was used to compare treatments after confirming normal data distribution. P < 0.05 was considered statistically significant by comparing untreated cells (experiments on untreated hMDMs) with infected cells (experiments on untreated and treated hMDMs).

[9] = system: L. (V.) panamensis-infected hMDMs; assay: NO production in L. (V.) panamensis-infected hMDMs (DAF-FM flow cytometry); type: cell-based, human; conditions: compound at EC50, 24, 48 and 72 h
Protocol: as §7

[10] = L. (V.) panamensis promastigotes, ± SD
[11] = L. (V.) panamensis promastigotes, ± SD, read-out: EC50 Intracellular promastigotes (converted)
[12] = hamsters, topical 1% ointment, 3 months posttreatment, n = 6

CCCc1c(CC)nc2ccccc2c1C(=O)O [Compound 3, carboxylic acid 2-ethyl-3-propyl-4-quinolinine]
SI (selectivity index = CC50/EC50) [1]: 1.27
EC50 Intracellular amastigotes [1]: 121.9 ± 6.2 µg/mL (≈ 501 µM)
Cytotoxicity class toward hMDMs (hMDMs): moderate (moderate if CC50 from 100 to <200 μg/mL)
EC50 Intracellular promastigotes [2, 10]: 93.8 ± 6.3 µg/mL (≈ 386 µM)
EC50 [2, 11]: 496 µM

COc1ccc2c(OC)c3ccoc3nc2c1OC [Compound 5, 4,7,8-trimetoxifure [2,3-b]-quinoline]
SI (selectivity index = CC50/EC50) [1]: 1.73
EC50 Intracellular amastigotes [1]: 61.7 ± 1.1 µg/mL (≈ 238 µM)
EC50 Intracellular promastigotes [2, 10]: 66.4 ± 13 µg/mL (≈ 256 µM)
EC50 [2, 11]: 256 µM

COc1ccccc1-c1cc(C(=O)O)c2ccc(C)c(C)c2n1 [Compound 6, carboxylic acid-7,8-tetrahydro-quinoline]
SI (selectivity index = CC50/EC50) [1]: 1.89
EC50 Intracellular amastigotes [1]: 46.5 ± 9.4 µg/mL (≈ 151 µM)
EC50 Intracellular promastigotes [2, 10]: 61.3 ± 29.6 µg/mL (≈ 199 µM)
EC50 [2, 11]: 240 µM

Cc1cc2ncccc2c2nc(N)n(C)c12 [Compound 7, 3,4-dimethyl-3H-imidazol [4.5f]-quinoline-2-amine]
SI (selectivity index = CC50/EC50) [1]: 1.70
EC50 Intracellular amastigotes [1]: 55.8 ± 8.3 µg/mL (≈ 263 µM)
EC50 Intracellular promastigotes [2, 10]: 26.5 ± 5.8 µg/mL (≈ 125 µM)
EC50 [2, 11]: 134 µM

Nc1ccc2cccc(O)c2n1 [Compound 8, 2-amino-8-hydroxyquinoline]
Serum BUN level ([3]; compared to before treatment): significantly decreased
Cytotoxicity-related clinical manifestations ([3]; topical 1% ointment): No cytotoxicity-related clinical manifestations
Live weight posttreatment ([3]; topical 1% ointment): no evident changes during treatment
Cell membrane (ultrastructural alteration grade) [4]: -
Flagellum (flagellar/axonema pocket) (description) [4]: Membrane swelling
Flagellum (flagellar/axonema pocket) (grade) [4]: +++
LB (lipid bodies, grade) [4]: -
Mitochondria/Kinetoplasts (description) [4]: Membrane swelling
Mitochondria/Kinetoplasts (ultrastructural alteration grade) [4]: +++
Nucleus (description) [4]: Abnormal distribution of chromatine
Nucleus (ultrastructural alteration grade) [4]: ++
PV (description) [4]: Individuals attached to the parasite
PV (parasitophorous vacuoles, grade) [4]: +
Vacuoles (description) [4]: Double membrane (autophagic-digestives)
Vacuoles (ultrastructural alteration grade) [4]: +++
Cell membrane (ultrastructural modification grade) [5]: -
LB (lipid bodies, grade) [5]: -
Mitochondria (ultrastructural modification grade) [5]: +
Nucleus (description) [5]: Abnormal distribution of chromatin; also recorded: Nuclear membrane alteration
Nucleus (ultrastructural modification grade) [5]: +++
PV (description) [5]: Individuals, attached to the parasite
PV (parasitophorous vacuoles, grade) [5]: +
Parasites (grade) [5]: +
Vacuoles (description) [5]: Double membrane (autophagic-digestives)
Vacuoles (ultrastructural modification grade) [5]: +++
ROS generation compared to infected control cells [6]: no significant variations
Antileishmanial activity class ([1]; intracellular amastigotes, class by EC50): high (high if EC50 < 25 μg/mL)
CC50 at 72 h [7]: 5.5 µg/mL and 34 µM
Cytotoxicity class toward hMDMs (hMDMs): high (high if CC50 < 100 μg/mL)
Histopathologic analysis of the skin, cured hamsters ([8]; hamsters cured by treatment, hematoxylin/eosin): mixed leucocyte infiltratation
Lesion size during treatment ([8]; hamsters, topical 1% ointment): significantly reduced lesions
Improvement (reduced lesion size), percentage of the experimental group [8, 12]: 50%
No effect (poor response), percentage of the experimental group [8, 12]: 16.6%
Total cure (healing), percentage of the experimental group [8, 12]: 33.3%
EC50 ([2]; read-out: EC50 Intracellular promastigotes): 1.6 µg/mL and 10 µM
NO production compared to untreated infected hMDMs [9]: do not modulate the induction of NO production
